Patent publication US20040063649A1, “Azithromycin combination for emesis control in mammals” (Pfizer Inc, priority 1999, published 2004)

Columns and labels:
[1] = system: azithromycin-induced emesis in azithromycin-sensitive English pointers; experiment: Control of azithromycin-induced emesis in an azithromycin-sensitive dog population; format: in vivo
Experimental: (§1) The ability of various compounds to control azithromycin-induced emesis in dogs was measured in 13 studies using two groups of dogs. The majority of the studies were conducted using a family (dam and offspring) of 12 azithromycin-sensitive English pointers, bred and maintained by Young Veterinary Research Services of Turlock, Calif. The remaining studies were conducted using random source dogs maintained at the Pfizer Animal Health Research facility in Terre Haute, Ind. In all studies, azithromycin was administered in immediate release formulations at a dose of 10 mg/kg.
Initially, four commercialized antiemetic products and CP122,721 were screened individually in the azithromycin-sensitive population with a minimum 7 day washout period between antiemetic tests. Antiemetics were administered orally about 15 to 30 minutes prior to oral treatment with 10 mg/kg azithromycin in an immediate release tablet. […] Other antiemetics reduced the incidence of emesis by only about 10 to 42%.
(§2) Four studies were conducted to titrate the dose of CP122,721 for maximum antiemetic activity with and without a delay between oral antiemetic and oral azithromycin dosing. […] While these studies were in progress, random source dogs (8 per-treatment) were administered 0, 1.5 or 3 mg/kg CP122,721 simultaneously with 10 mg/kg azithromycin. […] In the fourth study, the sensitive pointers received either 3 or 4 mg/kg CP122,721 simultaneously with azithromycin. The incidence of emesis was equivalent with one dog in each treatment group vomiting.

emesis in ferrets = conditions: vomiting caused by intragastric copper sulfate and ipecac syrup, subcutaneous loperamide, intraperitoneal cisplatin; cited from earlier work
[2] = system: azithromycin-induced emesis in random source dogs; experiment: Control of azithromycin-induced emesis in random source dogs; format: in vivo, dog; conditions: for Emetic Dogs/Total Dogs: Random source dogs, 0 minutes before (simultaneously with) azithromycin 10 mg/kg
Experimental: as §1, §2

[3] = antiemetic 1 mg/kg oral, 30 minutes before azithromycin 10 mg/kg oral immediate release tablet

CN(C)CCOC(c1ccccc1)c1ccccc1.Cn1c(=O)c2[nH]c(Cl)nc2n(C)c1=O [Dimenhydrinate, reference compound]
Emetic Dogs/Total Dogs ([1]; antiemetic 8 mg/kg oral, 30 minutes before azithromycin 10 mg/kg oral immediate release tablet): 10/12

COc1ccc(OC(F)(F)F)cc1CN[C@H]1CCCN[C@H]1c1ccccc1 [CP122,721, (2S,3S)-3-(2-methoxy-5-trifluoromethoxybenzyl)amino-2-phenylpiperidine]
effective in preventing emesis ([1]; 5 mg/kg oral, about 15 to 30 minutes prior to oral azithromycin 10 mg/kg): 100%
Emetic Dogs/Total Dogs ([1]; Sensitive dogs, 30 minutes before azithromycin 10 mg/kg): 0/4
Emetic Dogs/Total Dogs ([1]; Sensitive dogs, CP122,721 1 mg/kg oral, 30 minutes before azithromycin 10 mg/kg): 4/4
Emetic Dogs/Total Dogs ([1]; Sensitive dogs, CP122,721 2.5 mg/kg oral, 0 minutes before (simultaneously with) azithromycin 10 mg/kg): 6/6
Emetic Dogs/Total Dogs ([1]; Sensitive dogs, CP122,721 2.5 mg/kg oral, 30 minutes before azithromycin 10 mg/kg): 0/6
Emetic Dogs/Total Dogs ([1]; Sensitive dogs, CP122,721 3 mg/kg, 0 minutes before (simultaneously with) azithromycin 10 mg/kg): 1/6
Emetic Dogs/Total Dogs ([1]; Sensitive dogs, CP122,721 4 mg/kg, 0 minutes before (simultaneously with) azithromycin 10 mg/kg): 1/6
Emetic Dogs/Total Dogs ([1]; Sensitive dogs, CP122,721 dose cell blank (third line of first titration), 30 minutes before azithromycin 10 mg/kg): 0/4
Emetic Dogs/Total Dogs ([1]; antiemetic 5 mg/kg oral, 30 minutes before azithromycin 10 mg/kg oral immediate release tablet): 0/12
emesis (in words) ([1]; sensitive pointers, 2.5 mg/kg simultaneously with azithromycin): all pointers were emetic
prevention of emesis (in words) ([1]; sensitive pointers, 2.5 mg/kg, 30 minutes prior to azithromycin): effective in preventing emesis
dogs vomiting in treatment group ([1]; sensitive pointers, 3 mg/kg simultaneously with azithromycin): one
dogs vomiting in treatment group ([1]; sensitive pointers, 4 mg/kg simultaneously with azithromycin): one
effect on vomiting in ferrets (in words) (emesis in ferrets): reduces vomiting
Emetic Dogs/Total Dogs ([2]; CP122,721 1.5 mg/kg): 4/8
Emetic Dogs/Total Dogs ([2]; CP122,721 3 mg/kg): 0/8
incidence of emesis (in words) ([2]; random source dogs, 8 per treatment, 1.5 mg/kg simultaneously with 10 mg/kg azithromycin): not reduced
prevention of azithromycin emesis (in words) ([2]; random source dogs, 8 per treatment, 3 mg/kg simultaneously with 10 mg/kg azithromycin): completely effective

Cc1nccn1CC1CCc2c(c3ccccc3n2C)C1=O (centres unmarked) [Ondansetron, reference compound]
Emetic Dogs/Total Dogs [1, 3]: 5/12
reduction of the incidence of emesis ([1]; antiemetic oral about 15 to 30 minutes prior to oral azithromycin 10 mg/kg, doses as in Table 1): 58%

CN1CCN(CCCN2c3ccccc3Sc3ccc(Cl)cc32)CC1 [Prochlorperazine, reference compound]
Emetic Dogs/Total Dogs [1, 3]: 7/12

CCN(CC)CCNC(=O)c1cc(Cl)c(N)cc1OC [Metoclopramide, reference compound]
Emetic Dogs/Total Dogs ([1]; antiemetic 0.5 mg/kg oral, 15 minutes before azithromycin 10 mg/kg oral immediate release tablet): 11/12
